The text below walks through data of paper PMC2913692 (The European journal of neuroscience, 2010).

In experiment [1] the test system is N-methyl-D-aspartate receptor (NMDAR), NR1 subunit coagonist site.
Experiment [2] shares this test system. In words: whole-cell voltage clamp. The class given is cell-based, Ambystoma tigrinum.
Experiment [3] shares this test system. In words: whole-cell voltage clamp of retinal ganglion cells. Further details: species or system Ambystoma tigrinum.

Like-named read-outs stand apart in the source and are kept apart here.

Turning to `NCC(=O)O` [glycine], it took 118 ± 48.1 µM to reach a half-maximal effect in experiment [1] (EC50). For `O=C(O)c1cc(O)c2ccc(Cl)cc2n1` [7CKA, 7-chlorokynurenic acid], in experiment [2], the “% of control at 25 μM” value came out at 5.3 ± 1.0. As to `N[C@H](CO)C(=O)O` [D-serine], the response in experiment [3] was half-maximal at 3.48 ± 1.05 µM (EC50).
